The results in this text go back to US20210038607A1, “OXADIAZOLYLTHIOPHENE DERIVATIVES USEFUL AS HISTONE DEACETYLASE INHIBITORS” (Karus Therapeutics Limited, priority 2018, published 2021).

In test [1] the target is T1, Human HDAC4 (Homo sapiens, UniProt P56524).
T1 construct: amino acids 627-1085 with N-terminal GST tag; GST (N); host or cells: baculovirus expression system
As to the kind of experiment: HDAC4 biochemical assay, class IIa-specific substrate. The following applies: read-out: HDAC Isoform IC50 (nM) 4. The method, boiled down:
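GST-tagged human HDAC4 (aa 627-1085, baculovirus) at 0.004 ng/ul was incubated 30 min at room temperature with 50 μM class IIa-specific substrate BOC-Lys(trifluoroacetyl)-AMC in Tris-HCl pH 8.0 buffer with BSA, 1% DMSO. Developer then released AMC, read at 360/460 nm.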

The target in test [2] is T2, Human HDAC1 (Homo sapiens, UniProt Q13547).
T2 construct: full length with C-terminal His-tag and C-terminal FLAG-tag; His (C); FLAG (C); host or cells: baculovirus expression system
T2 sequence (Q13547 whole entry): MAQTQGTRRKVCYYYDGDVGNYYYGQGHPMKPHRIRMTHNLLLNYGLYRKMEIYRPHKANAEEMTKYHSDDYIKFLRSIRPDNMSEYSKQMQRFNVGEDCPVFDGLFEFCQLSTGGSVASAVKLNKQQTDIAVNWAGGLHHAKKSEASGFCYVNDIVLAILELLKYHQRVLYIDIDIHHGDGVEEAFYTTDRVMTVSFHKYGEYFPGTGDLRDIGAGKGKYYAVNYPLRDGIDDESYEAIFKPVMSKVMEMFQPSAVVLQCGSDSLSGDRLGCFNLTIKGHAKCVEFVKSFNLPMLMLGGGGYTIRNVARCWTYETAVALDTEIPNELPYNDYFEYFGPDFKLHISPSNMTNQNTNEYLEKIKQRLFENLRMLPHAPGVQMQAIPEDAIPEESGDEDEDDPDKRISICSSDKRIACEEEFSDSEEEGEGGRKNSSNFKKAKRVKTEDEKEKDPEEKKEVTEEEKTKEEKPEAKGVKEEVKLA
As to the kind of experiment: HDAC1 biochemical assay, AMC-labeled peptide substrate. Conditions: read-out: HDAC Isoform IC50 (nM) 1. The method, boiled down: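 Baculovirus-expressed full-length human HDAC1 with His and FLAG tags, 0.3 ng/ul, incubated 1 h at 30° C with compound and 50 μM RHKK(Ac)AMC in Tris pH 8.0 buffer with BSA and 1% DMSO. Developer then releases AMC from deacetylated substrate; fluorescence read at 360/460 nm.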

In test [3] the target is T3, Complex of human HDAC3 and human NCOR2 (Homo sapiens, UniProt O15379).
T3 construct: full length with C-terminal His tag, MW=49.7 kDa; His (C); host or cells: baculovirus expression system (co-expressed)
T3 sequence (O15379 whole entry): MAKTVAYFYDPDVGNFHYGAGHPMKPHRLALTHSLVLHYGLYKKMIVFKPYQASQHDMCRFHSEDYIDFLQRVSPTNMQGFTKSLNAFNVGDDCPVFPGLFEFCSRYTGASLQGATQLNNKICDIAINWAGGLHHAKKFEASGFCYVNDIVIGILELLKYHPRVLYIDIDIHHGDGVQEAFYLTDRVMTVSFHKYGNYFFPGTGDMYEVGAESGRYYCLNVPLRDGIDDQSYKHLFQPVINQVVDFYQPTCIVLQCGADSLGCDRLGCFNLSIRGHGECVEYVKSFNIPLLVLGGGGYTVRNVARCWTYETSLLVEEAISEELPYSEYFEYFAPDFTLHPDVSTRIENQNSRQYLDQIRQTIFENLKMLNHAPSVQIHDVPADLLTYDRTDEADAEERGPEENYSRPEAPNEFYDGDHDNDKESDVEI
T3 sequence (Q9Y618 395-489 partner limits assumed): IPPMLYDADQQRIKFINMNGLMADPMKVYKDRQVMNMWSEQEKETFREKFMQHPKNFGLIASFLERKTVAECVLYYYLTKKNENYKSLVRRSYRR
As to the kind of experiment: HDAC3 biochemical assay, AMC-labeled peptide substrate. Conditions: read-out: HDAC Isoform IC50 (nM) 3. In outline:
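Baculovirus-coexpressed His-tagged full-length HDAC3 with GST-NCOR2 (aa 395-489), 0.1 ng/ul, deacetylates 50 μM RHKK(Ac)AMC in Tris-HCl pH8.0 with BSA and 1% DMSO, 1 h at 30° C. Developer then cleaves deacetylated substrate; fluorescence read at 360/460 Ex/Em.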

In test [4] the target is T4, Human HDAC9 (Homo sapiens, UniProt Q9UKV0).
T4 construct: amino acids 604-1066 with C-terminal His tag; His (C); host or cells: baculovirus expression system
T4 sequence (Q9UKV0 604-1066 isoform Q9UKV0-5): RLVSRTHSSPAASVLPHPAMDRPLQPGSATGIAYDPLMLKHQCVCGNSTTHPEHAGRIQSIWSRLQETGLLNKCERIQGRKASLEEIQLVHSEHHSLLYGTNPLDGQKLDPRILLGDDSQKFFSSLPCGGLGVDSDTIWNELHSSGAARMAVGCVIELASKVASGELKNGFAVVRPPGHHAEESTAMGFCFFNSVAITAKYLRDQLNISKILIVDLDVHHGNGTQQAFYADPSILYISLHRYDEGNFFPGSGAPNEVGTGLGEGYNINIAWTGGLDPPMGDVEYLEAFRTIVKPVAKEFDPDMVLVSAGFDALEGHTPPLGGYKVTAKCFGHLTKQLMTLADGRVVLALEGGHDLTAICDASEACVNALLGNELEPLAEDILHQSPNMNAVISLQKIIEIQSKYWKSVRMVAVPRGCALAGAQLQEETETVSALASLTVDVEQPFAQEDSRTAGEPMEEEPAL
As to the kind of experiment: HDAC9 biochemical assay, class IIa-specific substrate. Conditions: read-out: HDAC Isoform IC50 (nM) 9. The method, boiled down:
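HDAC9 residues 604-1066 (C-terminal His tag, baculovirus-expressed) at 0.06 ng/ul with 50 μM class IIa substrate Boc-Lys(trifluoroacetyl)-AMC in Tris-HCl pH 8.0 buffer with BSA and 1% DMSO. 30 min at room temperature, then developer added; fluorescence read at 360/460 nm Ex/Em.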

Test [5] concerns the target T5, Human HDAC8 (Homo sapiens, UniProt Q9BY41).
T5 construct: full length with C-terminal His tag, MW=42.6 kDa; His (C); host or cells: baculovirus expression system
T5 sequence (Q9BY41 1-377): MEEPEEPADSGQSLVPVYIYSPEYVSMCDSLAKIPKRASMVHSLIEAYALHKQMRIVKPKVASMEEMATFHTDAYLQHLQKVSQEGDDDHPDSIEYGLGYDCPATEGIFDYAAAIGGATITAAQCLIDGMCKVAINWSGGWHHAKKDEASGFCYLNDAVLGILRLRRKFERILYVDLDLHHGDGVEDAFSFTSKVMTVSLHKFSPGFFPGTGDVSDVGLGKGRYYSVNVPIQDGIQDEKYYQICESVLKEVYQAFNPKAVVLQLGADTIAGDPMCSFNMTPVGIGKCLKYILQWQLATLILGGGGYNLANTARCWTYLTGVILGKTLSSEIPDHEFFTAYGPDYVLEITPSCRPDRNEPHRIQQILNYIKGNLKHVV
As to the kind of experiment: HDAC8 biochemical assay, AMC-labeled peptide substrate. The following applies: read-out: HDAC Isoform IC50 (nM) 8. In outline:
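Full-length human HDAC8 with C-terminal His tag, baculovirus-expressed, 1 ng/ul, with 100 µM RHK(Ac)K(Ac)AMC substrate in Tris-HCl pH8.0 buffer with BSA, 1% DMSO. Incubated 2 h at 30° C, then developer added to cleave deacetylated substrate; fluorescence read at 360/460 Ex/Em.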

Test [6] concerns the target T6, Human HDAC11 (Homo sapiens, UniProt Q96DB2).
T6 construct: Human HDAC11 (full length); His (N); host or cells: baculovirus expression system
T6 sequence (Q96DB2 1-347): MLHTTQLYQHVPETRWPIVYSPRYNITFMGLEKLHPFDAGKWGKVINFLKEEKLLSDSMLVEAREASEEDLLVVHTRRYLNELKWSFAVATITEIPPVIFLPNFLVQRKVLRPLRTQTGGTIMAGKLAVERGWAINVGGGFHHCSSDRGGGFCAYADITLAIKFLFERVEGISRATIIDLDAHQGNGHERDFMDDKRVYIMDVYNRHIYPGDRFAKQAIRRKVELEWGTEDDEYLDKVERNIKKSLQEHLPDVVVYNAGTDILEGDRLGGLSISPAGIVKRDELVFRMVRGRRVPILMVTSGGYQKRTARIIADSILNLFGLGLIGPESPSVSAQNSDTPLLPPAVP
As to the kind of experiment: HDAC11 biochemical assay, class IIa-specific substrate. Conditions: read-out: HDAC Isoform IC50 (nM) 11. The method, boiled down:
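Full-length N-His human HDAC11 from baculovirus, 5 ng/μl, incubated with 50 μM Boc-Lys(trifluoroacetyl)-AMC for 30 min at 30 °C. Buffer: 50 mM Tris-HCl pH 8.0, 137 mM NaCl, 2.7 mM KCl, 1 mM MgCl2, 1 mg/mL BSA, 1% DMSO. Developer releases AMC; fluorescence read at 360/460 nm.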

The structures appear in SMILES notation.

T1 sequence (P56524 627-1084 limits assumed): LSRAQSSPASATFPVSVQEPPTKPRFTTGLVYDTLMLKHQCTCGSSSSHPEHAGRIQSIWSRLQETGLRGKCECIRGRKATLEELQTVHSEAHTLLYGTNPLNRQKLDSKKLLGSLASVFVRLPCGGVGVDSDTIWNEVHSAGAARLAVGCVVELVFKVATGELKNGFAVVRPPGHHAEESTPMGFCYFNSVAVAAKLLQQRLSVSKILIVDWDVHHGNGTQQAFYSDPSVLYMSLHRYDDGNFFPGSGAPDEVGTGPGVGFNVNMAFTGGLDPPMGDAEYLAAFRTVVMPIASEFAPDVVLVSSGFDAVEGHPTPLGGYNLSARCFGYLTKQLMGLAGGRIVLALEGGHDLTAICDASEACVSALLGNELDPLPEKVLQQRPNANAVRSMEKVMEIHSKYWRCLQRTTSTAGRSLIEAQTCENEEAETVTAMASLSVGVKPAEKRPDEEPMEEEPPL

Turning to `FC(F)(F)c1nc(-c2ccc(CN(c3cnccn3)c3cc(CN4CCCC4)ccn3)s2)no1` [Example GG, N-{4-[(Pyrrolidin-1-yl)methyl]pyridin-2-yl}-N-({5-[5-(trifluoromethyl)-1,2,4-oxadiazol-3-yl]thiophen-2-yl}methyl)pyrazin-2-amine], the IC50 – broadly, the concentration that inhibits the measured activity by half – was at most 1000 nM in test [1]; above 10000 nM in test [2]; above 10000 nM in test [3]; at most 10000 nM in test [4]; at most 10000 nM in test [5]; above 10000 nM in test [6].
For the compound `COC1CN(Cc2ccnc(N(Cc3ccc(-c4noc(C(F)(F)F)n4)s3)c3cnccn3)c2)C1` [Example GH, N-{4-[(3-Methoxyazetidin-1-yl)methyl]pyridin-2-yl}-N-({5-[5-(trifluoromethyl)-1,2,4-oxadiazol-3-yl]thiophen-2-yl}methyl)pyrazin-2-amine], the IC50 in test [1] was at most 10000 nM; in test [2] it was above 10000 nM; in test [3], above 10000 nM; in test [4], at most 10000 nM; in test [5], at most 10000 nM; in test [6], above 10000 nM.
Consider `FC(F)(F)c1nc(-c2ccc(CN(c3cnccn3)c3cc(CN4CCOCC4)ccn3)s2)no1` [Example GI, N-{4-[(Morpholin-4-yl)methyl]pyridin-2-yl}-N-({5-[5-(trifluoromethyl)-1,2,4-oxadiazol-3-yl]thiophen-2-yl}methyl)pyrazin-2-amine], for which the IC50 in test [1] is at most 10000 nM; in test [2], above 10000 nM; in test [3], above 10000 nM; in test [4], at most 10000 nM; in test [5], at most 10000 nM; in test [6], above 10000 nM.
With `O=C(c1cnnc(N(Cc2ccc(-c3noc(C(F)(F)F)n3)s2)c2cnccn2)c1)N1CC(C(F)(F)F)C1` [Example GJ, N-(Pyrazin-2-yl)-N-({5-[5-(trifluoromethyl)-1,2,4-oxadiazol-3-yl]thiophen-2-yl}methyl)-5-[3-(trifluoromethyl)azetidine-1-carbonyl]pyridazin-3-amine], the IC50 was at most 1000 nM in test [1]; above 10000 nM in test [2]; at most 10000 nM in test [3]; at most 10000 nM in test [4]; at most 10000 nM in test [5]; above 10000 nM in test [6].
For `O=C(c1cnnc(N(Cc2ccc(-c3noc(C(F)(F)F)n3)s2)c2cnccn2)c1)N1CC(C(F)F)C1` [Example GK, 5-[3-(Difluoromethyl)azetidine-1-carbonyl]-N-(pyrazin-2-yl)-N-({5-[5-(trifluoromethyl)-1,2,4-oxadiazol-3-yl]thiophen-2-yl}methyl)pyridazin-3-amine], the IC50 was at most 1000 nM in test [1]; at most 10000 nM in test [2]; at most 10000 nM in test [3]; at most 10000 nM in test [4]; at most 10000 nM in test [5]; above 10000 nM in test [6].
`COC1(C(F)(F)F)CN(C(=O)c2cnnc(N(Cc3ccc(-c4noc(C(F)(F)F)n4)s3)c3cnccn3)c2)C1` [Example GL, 5-[3-Methoxy-3-(trifluoromethyl)azetidine-1-carbonyl]-N-(pyrazin-2-yl)-N-({5-[5-(trifluoromethyl)-1,2,4-oxadiazol-3-yl]thiophen-2-yl}methyl)pyridazin-3-amine]: the IC50 is at most 10000 nM in test [1]; at most 10000 nM in test [2]; at most 10000 nM in test [3]; at most 10000 nM in test [4]; at most 10000 nM in test [5]; above 10000 nM in test [6].
Take `FC(F)(F)c1nc(-c2ccc(CN(c3cnccn3)c3cc(-c4ccccn4)cnn3)s2)no1` [Example GM, N-(Pyrazin-2-yl)-5-(pyridin-2-yl)-N-({5-[5-(trifluoromethyl)-1,2,4-oxadiazol-3-yl]thiophen-2-yl}methyl)pyridazin-3-amine]: the IC50 was at most 10000 nM in test [1]; above 10000 nM in test [2]; above 10000 nM in test [3]; at most 10000 nM in test [4]; at most 10000 nM in test [5]; above 10000 nM in test [6].
Regarding `Cc1cnnc(N(Cc2ccc(-c3noc(C(F)(F)F)n3)s2)c2cnccn2)c1` [Example GN, 5-Methyl-N-(pyrazin-2-yl)-N-({5-[5-(trifluoromethyl)-1,2,4-oxadiazol-3-yl]thiophen-2-yl}methyl)pyridazin-3-amine], the IC50 in test [1] is at most 1000 nM; in test [2], above 10000 nM; in test [3], above 10000 nM; in test [4], at most 10000 nM; in test [5] it was at most 10000 nM; in test [6] it was above 10000 nM.
`NC(=O)c1nccnc1N(Cc1ccc(-c2noc(C(F)(F)F)n2)s1)c1cnccn1` [Example GO, 3-[(Pyrazin-2-yl)({5-[5-(trifluoromethyl)-1,2,4-oxadiazol-3-yl]thiophen-2-yl}methyl)amino]pyrazine-2-carboxamide]: the IC50 in test [1] is at most 10000 nM; in test [2] it was above 10000 nM; in test [3], above 10000 nM; in test [4], at most 10000 nM; in test [5] it was at most 10000 nM; in test [6] it was above 10000 nM.
Regarding `O=C(c1nccnc1N(Cc1ccc(-c2noc(C(F)(F)F)n2)s1)c1cnccn1)N1CCC1` [Example GP, 3-(Azetidine-1-carbonyl)-N-(pyrazin-2-yl)-N-({5-[5-(trifluoromethyl)-1,2,4-oxadiazol-3-yl]thiophen-2-yl}methyl)pyrazin-2-amine], the IC50 in test [1] is at most 10000 nM; in test [2] it was above 10000 nM; in test [3] it was above 10000 nM; in test [4] it was at most 10000 nM; in test [5] it was at most 10000 nM; in test [6], above 10000 nM.
As to `O=C(c1nccnc1N(Cc1ccc(-c2noc(C(F)(F)F)n2)s1)c1cnccn1)N1CC(O)(C(F)(F)F)C1` [Example GQ, 1-{3-[(Pyrazin-2-yl)({5-[5-(trifluoromethyl)-1,2,4-oxadiazol-3-yl]thiophen-2-yl}methyl)amino]pyrazine-2-carbonyl}-3-(trifluoromethyl)azetidin-3-ol], the IC50 is at most 10000 nM in test [1]; above 10000 nM in test [2]; above 10000 nM in test [3]; at most 10000 nM in test [4]; at most 10000 nM in test [5]; above 10000 nM in test [6].
Consider `O=C(c1cncc(N(Cc2ccc(-c3noc(C(F)(F)F)n3)s2)c2cnccn2)c1)N1CCOCC1` [Example GR, N-[5-(Morpholine-4-carbonyl)pyridin-3-yl]-N-({5-[5-(trifluoromethyl)-1,2,4-oxadiazol-3-yl]thiophen-2-yl}methyl)pyrazin-2-amine], for which the IC50 in test [1] was at most 1000 nM; in test [2] it was above 10000 nM; in test [3], above 10000 nM; in test [4], at most 10000 nM; in test [5] it was at most 10000 nM; in test [6] it was above 10000 nM.
